Results from ChEMBL document CHEMBL4251615, “Discovery of anilino-furo[2,3-d]pyrimidine derivatives as dual inhibitors of EGFR/HER2 tyrosine kinase and their anticancer activity” (Eur J Med Chem, 2018).

Assays:
Assay type in all cases: functional
RPMI-8226 = experiment: Growth inhibition of human RPMI8226 cells assessed as cell growth at 10 uM incubated for 48 hrs by sulforhodamine B assay relative to control; settings: RPMI-8226, 48 h, read-out: Activity
A549 = experiment: Growth inhibition of human A549/ATCC cells assessed as cell growth at 10 uM incubated for 48 hrs by sulforhodamine B assay relative to control; settings: A549, 48 h, read-out: Activity
HOP-62 = experiment: Growth inhibition of human HOP62 cells assessed as cell growth at 10 uM incubated for 48 hrs by sulforhodamine B assay relative to control; settings: HOP-62, 48 h, read-out: Activity
HOP-92 = experiment: Growth inhibition of human HOP92 cells assessed as cell growth at 10 uM incubated for 48 hrs by sulforhodamine B assay relative to control; settings: HOP-92, 48 h, read-out: Activity
HCT-116 = experiment: Growth inhibition of human HCT116 cells assessed as cell growth at 10 uM incubated for 48 hrs by sulforhodamine B assay relative to control; settings: HCT-116, 48 h, read-out: Activity
HT-29 = experiment: Growth inhibition of human HT-29 cells assessed as cell growth at 10 uM incubated for 48 hrs by sulforhodamine B assay relative to control; settings: HT-29, 48 h, read-out: Activity
KM12 = experiment: Growth inhibition of human KM12 cells assessed as cell growth at 10 uM incubated for 48 hrs by sulforhodamine B assay relative to control; settings: KM12, 48 h, read-out: Activity
SW-620 = experiment: Growth inhibition of human SW620 cells assessed as cell growth at 10 uM incubated for 48 hrs by sulforhodamine B assay relative to control; settings: SW-620, 48 h, read-out: Activity
SF-295 = experiment: Growth inhibition of human SF295 cells assessed as cell growth at 10 uM incubated for 48 hrs by sulforhodamine B assay relative to control; settings: SF-295, 48 h, read-out: Activity
SNB-19 = experiment: Growth inhibition of human SNB19 cells assessed as cell growth at 10 uM incubated for 48 hrs by sulforhodamine B assay relative to control; settings: SNB-19, 48 h, read-out: Activity
SNB-75 = experiment: Growth inhibition of human SNB75 cells assessed as cell growth at 10 uM incubated for 48 hrs by sulforhodamine B assay relative to control; settings: SNB-75, 48 h, read-out: Activity
U-251 = experiment: Growth inhibition of human U251 cells assessed as cell growth at 10 uM incubated for 48 hrs by sulforhodamine B assay relative to control; settings: U-251, 48 h, read-out: Activity
LOX IMVI = experiment: Growth inhibition of human LOXIMVI cells assessed as cell growth at 10 uM incubated for 48 hrs by sulforhodamine B assay relative to control; settings: read-out: Activity
Malme-3M = experiment: Growth inhibition of human MALME-3M cells assessed as cell growth at 10 uM incubated for 48 hrs by sulforhodamine B assay relative to control; settings: read-out: Activity
MDA-MB-435 = experiment: Growth inhibition of human MDA-MB-435 cells assessed as cell growth at 10 uM incubated for 48 hrs by sulforhodamine B assay relative to control; settings: MDA-MB-435, 48 h, read-out: Activity
SK-MEL-2 = experiment: Growth inhibition of human SK-MEL-2 cells assessed as cell growth at 10 uM incubated for 48 hrs by sulforhodamine B assay relative to control; settings: SK-MEL-2, 48 h, read-out: Activity
SK-MEL-28 = experiment: Growth inhibition of human SK-MEL-28 cells assessed as cell growth at 10 uM incubated for 48 hrs by sulforhodamine B assay relative to control; settings: SK-MEL-28, 48 h, read-out: Activity
SK-MEL-5 = experiment: Growth inhibition of human SK-MEL-5 cells assessed as cell growth at 10 uM incubated for 48 hrs by sulforhodamine B assay relative to control; settings: SK-MEL-5, 48 h, read-out: Activity
OVCAR-3 = experiment: Growth inhibition of human OVCAR3 cells assessed as cell growth at 10 uM incubated for 48 hrs by sulforhodamine B assay relative to control; settings: OVCAR-3, 48 h, read-out: Activity
OVCAR-4 = experiment: Growth inhibition of human OVCAR4 cells assessed as cell growth at 10 uM incubated for 48 hrs by sulforhodamine B assay relative to control; settings: OVCAR-4, 48 h, read-out: Activity
NCI/ADR-RES = experiment: Growth inhibition of human NCI/ADR-RES cells assessed as cell growth at 10 uM incubated for 48 hrs by sulforhodamine B assay relative to control; settings: read-out: Activity
CAKI-1 = experiment: Growth inhibition of human Caki1 cells assessed as cell growth at 10 uM incubated for 48 hrs by sulforhodamine B assay relative to control; settings: CAKI-1, 48 h, read-out: Activity
RXF 393 = experiment: Growth inhibition of human RXF393 cells assessed as cell growth at 10 uM incubated for 48 hrs by sulforhodamine B assay relative to control; settings: RXF 393, 48 h, read-out: Activity
TK-10 = experiment: Growth inhibition of human TK10 cells assessed as cell growth at 10 uM incubated for 48 hrs by sulforhodamine B assay relative to control; settings: TK-10, 48 h, read-out: Activity
PC-3 = experiment: Growth inhibition of human PC3 cells assessed as cell growth at 10 uM incubated for 48 hrs by sulforhodamine B assay relative to control; settings: PC-3, 48 h, read-out: Activity
DU-145 = experiment: Growth inhibition of human DU145 cells assessed as cell growth at 10 uM incubated for 48 hrs by sulforhodamine B assay relative to control; settings: DU-145, 48 h, read-out: Activity
T47D = experiment: Growth inhibition of human T47D cells assessed as cell growth at 10 uM incubated for 48 hrs by sulforhodamine B assay relative to control; settings: read-out: Activity

| Compound | growth at 10 µM (RPMI-8226) [%] | growth at 10 µM (A549) [%] | growth at 10 µM (HOP-62) [%] | growth at 10 µM (HOP-92) [%] | growth at 10 µM (HCT-116) [%] | growth at 10 µM (HT-29) [%] | growth at 10 µM (KM12) [%] | growth at 10 µM (SW-620) [%] | growth at 10 µM (SF-295) [%] | growth at 10 µM (SNB-19) [%] | growth at 10 µM (SNB-75) [%] | growth at 10 µM (U-251) [%] | growth at 10 µM (LOX IMVI) [%] | growth at 10 µM (Malme-3M) [%] | growth at 10 µM (MDA-MB-435) [%] | growth at 10 µM (SK-MEL-2) [%] | growth at 10 µM (SK-MEL-28) [%] | growth at 10 µM (SK-MEL-5) [%] | growth at 10 µM (OVCAR-3) [%] | growth at 10 µM (OVCAR-4) [%] | also measured |
| --- | --- | --- | --- | --- | --- | --- | --- | --- | --- | --- | --- | --- | --- | --- | --- | --- | --- | --- | --- | --- | --- |
| Cc1cccc(Nc2ncnc3oc(C)c(C(=O)NCCN4CCOCC4)c23)c1 | 89.5 | 102 | 93.1 | 97.6 | 117 | 104 | 94.6 | 98.9 | 94 | 91 | 82.4 | 105 | 93.2 | 97.2 | 101 | 106 | 100 | 96.9 | 102 | 110 | growth at 10 µM (NCI/ADR-RES): 94.7%; growth at 10 µM (CAKI-1): 90.2%; growth at 10 µM (RXF 393): 86.3%; growth at 10 µM (TK-10): 98.7%; growth at 10 µM (PC-3): 101%; growth at 10 µM (DU-145): 99.4%; growth at 10 µM (T47D): 106% |
| CCCNC(=O)c1c(C)oc2ncnc(Nc3cccc(Cl)c3)c12 | 95.4 | 82.7 | 87.7 | 57.2 | 105 | 93.8 | 94.6 | 106 | 90.1 | 106 | 94.6 | 90.9 | 96.4 | 121 | 103 | 85.6 | 112 | 89.9 | 106 | 101 | growth at 10 µM (NCI/ADR-RES): 94.1%; growth at 10 µM (CAKI-1): 101%; growth at 10 µM (RXF 393): 111%; growth at 10 µM (TK-10): 94.1%; growth at 10 µM (PC-3): 81.9%; growth at 10 µM (DU-145): 90%; growth at 10 µM (T47D): 53.5% |
| Cc1cccc(Nc2ncnc3oc(C)c(C(=O)NCCO)c23)c1 | 95.7 | 89.4 | 98.2 | 94.1 | 93 | 99.8 | 93.9 | 96 | 96.3 | 103 | 110 | 105 | 93 | 109 | 97.2 | 113 | 102 | 94.6 | 108 | 95 | growth at 10 µM (NCI/ADR-RES): 92.4%; growth at 10 µM (CAKI-1): 87.2%; growth at 10 µM (RXF 393): 81.1%; growth at 10 µM (TK-10): 102%; growth at 10 µM (PC-3): 96.1%; growth at 10 µM (DU-145): 103%; growth at 10 µM (T47D): 84.3% |
| Cc1oc2ncnc(Nc3cccc(Cl)c3)c2c1CO | 70.4 | 82.1 | 89 | 90.5 | 81.6 | 90.5 | 91.4 | 93.2 | 93.2 | 87.3 | 86.5 | 92.3 | 98.4 | 88.1 | 93.1 | 98.1 | 106 | 87.9 | 102 | 92.5 | growth at 10 µM (NCI/ADR-RES): 86%; growth at 10 µM (CAKI-1): 53.7%; growth at 10 µM (RXF 393): 85.4%; growth at 10 µM (TK-10): 65.2%; growth at 10 µM (PC-3): 71.3%; growth at 10 µM (DU-145): 86.2%; growth at 10 µM (T47D): 78.8% |
| CCOC(=O)c1c(C)oc2ncnc(Nc3cccc(F)c3)c12 | 107 | 93 | 101 | 88.3 | 88.1 | 89.8 | 100 | 94.2 | 94.8 | 93.7 | 107 | 106 | 105 | 131 | 101 | 92.9 | 98.2 | 99 | 108 | 108 | growth at 10 µM (NCI/ADR-RES): 96.1%; growth at 10 µM (CAKI-1): 92%; growth at 10 µM (RXF 393): 97.6%; growth at 10 µM (TK-10): 95.9%; growth at 10 µM (PC-3): 94.7%; growth at 10 µM (DU-145): 99%; growth at 10 µM (T47D): 92.7% |
